Molecules are shown by their SMILES.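 Following 48 hours of exposure in 96-well plates, responses at five concentrations were used to interpolate endpoints linearly. Here, GI50 denotes the concentration required for 50% inhibition of growth.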 Activity calls are given as the source filed them. Rule as the data show it: active = GI50 up to about 1.1 µM and inactive = higher.

Test systems include 786-0; A498; CAKI-1; CCRF-CEM; HCC 2998; KM12; MDA-MB-435; MOLT-4; Malme-3M; NCI-H226; NCI-H522; OVCAR-5; SF-268; SF-295; SR; U-251; UACC-62; UO-31.
What all share (experiment): NCI-60 cell line screen, 48 h

On to `O=C(c1ccco1)N(Cc1cccnc1)C(=S)N(Cc1cccnc1)C(=O)c1ccco1`, for which the GI50 is 3.06 µM (inactive) in the test on 786-0; 25.7 µM (inactive) in the test on A498; 19.9 µM (inactive) in the test on CAKI-1; 2.74 µM (inactive) in the test on CCRF-CEM; 17.5 µM (inactive) with HCC 2998; 3.9 µM (inactive) with KM12. For the same compound, the GI50 with MDA-MB-435 was 11.6 µM (inactive); in the test with MOLT-4, 11 µM (inactive); in the test on Malme-3M it was 16.7 µM (inactive); in the test on NCI-H226 it was 19.5 µM (inactive); in the test with NCI-H522, 13.5 µM (inactive); with OVCAR-5, 23.7 µM (inactive). The GI50 in the test on SF-268 is 18.7 µM (inactive); with SF-295, 30.6 µM (inactive); in the test with SR it was 5.28 µM (inactive); in the test on U-251, 16.3 µM (inactive); in the test on UACC-62, 15.2 µM (inactive); with UO-31, 15 µM (inactive).

Turning to `NC(=O)ON=C1CCN(Cc2ccccc2)CC1`, the GI50 in the test on 786-0, with A498, in the test with CAKI-1, in the test with CCRF-CEM, in the test with HCC 2998 and with KM12 was > 100 µM (inactive) each time. For the same compound, the GI50 in the test on MDA-MB-435, with MOLT-4, in the test on Malme-3M, with NCI-H226, with NCI-H522 and with OVCAR-5 was > 100 µM (inactive) in each case. The GI50 in the test with SF-268, in the test with SF-295, in the test with SR, in the test with U-251, in the test with UACC-62 and in the test on UO-31 was > 100 µM (inactive) each time.

Regarding `COC(=O)c1ccc(/C=C/C2=CC(=O)C=CC2=O)cc1`, the GI50 in the test with 786-0 is 11.4 µM (inactive); with A498 it was 18.7 µM (inactive); with CAKI-1 it was 13.8 µM (inactive); in the test with CCRF-CEM it was 2.4 µM (inactive); with HCC 2998, 20.7 µM (inactive); in the test on KM12 it was 14.4 µM (inactive). Also, the GI50 with MDA-MB-435 is 17.4 µM (inactive); in the test on MOLT-4, 2.74 µM (inactive); in the test with Malme-3M it was 17.4 µM (inactive); with NCI-H226 it was 17.6 µM (inactive); with NCI-H522 it was 1.8 µM (inactive); in the test on OVCAR-5, 19.9 µM (inactive). The GI50 with SF-268 is 16.7 µM (inactive); in the test with SF-295 it was 29.6 µM (inactive); in the test with SR, 3.3 µM (inactive); in the test with U-251, 17.3 µM (inactive); in the test with UACC-62, 19.4 µM (inactive); in the test with UO-31, 11.4 µM (inactive).

With `C=C(Cl)c1c(OC)cccc1OCc1ccccc1`, the GI50 in the test on 786-0 is > 100 µM (inactive); in the test on A498 it was 62.4 µM (inactive); with CAKI-1, > 100 µM (inactive); with CCRF-CEM it was 75 µM (inactive); in the test with HCC 2998, 37.4 µM (inactive); in the test with KM12, 54.2 µM (inactive). For the same compound, the GI50 is 37 µM (inactive) in the test with MDA-MB-435; 64.7 µM (inactive) in the test on MOLT-4; > 100 µM (inactive) in the test on Malme-3M; 48.2 µM (inactive) with NCI-H226; 44.6 µM (inactive) in the test on NCI-H522; > 100 µM (inactive) in the test with OVCAR-5. In addition, the GI50 is > 100 µM (inactive) in the test on SF-268; > 100 µM (inactive) in the test on SF-295; 26.8 µM (inactive) with SR; > 100 µM (inactive) with U-251; 30.4 µM (inactive) in the test on UACC-62; 55 µM (inactive) in the test on UO-31.

For the compound `CC(=O)Oc1c(C)c2c(c3ncccc13)OC(C)C2` (stereo not drawn), the GI50 in the test on 786-0 was 12.8 µM (inactive); in the test on A498, 20 µM (inactive); with CAKI-1, 14.6 µM (inactive); in the test with CCRF-CEM, 6.37 µM (inactive); in the test with HCC 2998, 12.8 µM (inactive); in the test with KM12 it was 15.1 µM (inactive). The GI50 in the test on MDA-MB-435 is 6.14 µM (inactive); with MOLT-4, 6.41 µM (inactive); with Malme-3M, 16.3 µM (inactive); in the test with NCI-H226, 16.4 µM (inactive); with NCI-H522, 4.29 µM (inactive); in the test on OVCAR-5, 17.2 µM (inactive). Besides, the GI50 was 14.4 µM (inactive) in the test on SF-268; 14.7 µM (inactive) with SF-295; 3.63 µM (inactive) in the test on SR; 15.5 µM (inactive) in the test with U-251; 12.2 µM (inactive) in the test with UACC-62; 14.8 µM (inactive) in the test on UO-31.

Turning to `c1ccc(/C(=N/Nc2ccccn2)c2ncccn2)cc1`, the GI50 was 0.8 µM (active) in the test with 786-0; > 100 µM (inactive) in the test with A498; 0.0528 µM (active) in the test on CAKI-1; < 0.0183 µM (active) in the test with CCRF-CEM; > 30 µM (inactive) in the test with HCC 2998; 3.18 µM (inactive) in the test on KM12. The GI50 in the test on MDA-MB-435 is 2.77 µM (inactive); in the test with MOLT-4, 0.0662 µM (active); with Malme-3M it was 0.538 µM (active); in the test on NCI-H226, 0.201 µM (active); in the test with NCI-H522, < 0.0172 µM (active); in the test with OVCAR-5, 2.77 µM (inactive). Further, the GI50 was 0.855 µM (active) with SF-268; 3.6 µM (inactive) with SF-295; 0.929 µM (active) in the test on SR; 2.07 µM (inactive) in the test on U-251; 2.82 µM (inactive) in the test on UACC-62; 0.617 µM (active) in the test with UO-31.

Take `C[C@H]1[C@H](C)N1CC(O)Cn1ccnc1[N+](=O)[O-]` (stereo partly drawn): the GI50 in the test on 786-0 is > 100 µM (inactive); in the test on A498, > 100 µM (inactive); with CAKI-1, > 100 µM (inactive); with CCRF-CEM, > 91.6 µM (inactive); with HCC 2998, > 100 µM (inactive); with KM12, > 100 µM (inactive). Further, the GI50 with MDA-MB-435 is > 100 µM (inactive); with MOLT-4, > 67.6 µM (inactive); in the test with Malme-3M it was > 100 µM (inactive); in the test with NCI-H226 it was > 100 µM (inactive); in the test on NCI-H522 it was > 100 µM (inactive); with OVCAR-5, > 100 µM (inactive). Also, the GI50 in the test with SF-268, with SF-295, in the test on SR, with U-251, in the test with UACC-62 and in the test with UO-31 was > 100 µM (inactive) each time.

Take `O=C(O)Cc1ccc(Oc2nc3ccccc3nc2-c2cccs2)cc1`: the GI50 is 80 µM (inactive) in the test with 786-0; 22.1 µM (inactive) with A498; 55.7 µM (inactive) in the test on CAKI-1; 49.3 µM (inactive) in the test on CCRF-CEM; 57.4 µM (inactive) with HCC 2998; 44.2 µM (inactive) in the test with KM12. The GI50 is 92 µM (inactive) with MDA-MB-435; 50 µM (inactive) in the test with MOLT-4; > 100 µM (inactive) with Malme-3M; 52.4 µM (inactive) in the test with NCI-H226; 65.2 µM (inactive) with NCI-H522; 62.7 µM (inactive) in the test on OVCAR-5. Also, the GI50 with SF-268 was 66.4 µM (inactive); in the test with SF-295, 42.6 µM (inactive); in the test with SR it was 38.8 µM (inactive); in the test on U-251, 30.5 µM (inactive); with UACC-62 it was 58.1 µM (inactive); in the test with UO-31, 37.3 µM (inactive).

`COc1cccc2c1OCC1Cc3ccccc3OC21` (stereo not drawn): the GI50 in the test with 786-0 is 35.6 µM (inactive); in the test on A498 it was 99.1 µM (inactive); in the test with CAKI-1, 61.4 µM (inactive); in the test with CCRF-CEM, 54.1 µM (inactive); with HCC 2998, 51.6 µM (inactive); in the test on KM12, 42.8 µM (inactive). Also, the GI50 was 24.7 µM (inactive) in the test on MDA-MB-435; 28.8 µM (inactive) in the test on MOLT-4; 42.4 µM (inactive) in the test on Malme-3M; > 100 µM (inactive) in the test on NCI-H226; > 100 µM (inactive) with NCI-H522; > 100 µM (inactive) in the test with OVCAR-5. Besides, the GI50 with SF-268 is 60.4 µM (inactive); with SF-295, 36.6 µM (inactive); in the test on SR, 59.3 µM (inactive); with U-251 it was 43.9 µM (inactive); with UACC-62 it was 45.4 µM (inactive); in the test with UO-31 it was 35.2 µM (inactive).

On to `O=C(N/N=C\c1ccccc1)Nc1cccc2ccccc12`, for which the GI50 in the test on 786-0 was 16.4 µM (inactive); in the test with A498, 25.4 µM (inactive); in the test on CAKI-1, 35.7 µM (inactive); in the test with CCRF-CEM it was > 100 µM (inactive); with HCC 2998, 80.2 µM (inactive); in the test on KM12, 33.4 µM (inactive). Besides, the GI50 in the test on MDA-MB-435 is 29.9 µM (inactive); with MOLT-4, > 100 µM (inactive); in the test on Malme-3M, 28.5 µM (inactive); in the test with NCI-H226, 27.1 µM (inactive); in the test with NCI-H522 it was 56.6 µM (inactive); in the test with OVCAR-5, 60.4 µM (inactive). For the same compound, the GI50 was 57 µM (inactive) in the test with SF-268; 32.1 µM (inactive) in the test on SF-295; > 100 µM (inactive) in the test with SR; 30.3 µM (inactive) in the test on U-251; 29.2 µM (inactive) in the test with UACC-62; 40.5 µM (inactive) in the test on UO-31.

`COC(=O)N1CC[C@@H]2CCC=C(c3cccc4c3OCO4)[C@@H]21`: the GI50 in the test with 786-0 is > 100 µM (inactive); with A498, > 100 µM (inactive); in the test with CAKI-1, > 100 µM (inactive); with CCRF-CEM it was 49.3 µM (inactive); in the test on HCC 2998, > 100 µM (inactive); in the test with KM12, > 100 µM (inactive). Besides, the GI50 is > 100 µM (inactive) in the test on MDA-MB-435; 26.1 µM (inactive) in the test on MOLT-4; > 100 µM (inactive) in the test on Malme-3M; > 100 µM (inactive) in the test on NCI-H226; > 100 µM (inactive) in the test with NCI-H522; > 100 µM (inactive) in the test with OVCAR-5. Further, the GI50 was > 100 µM (inactive) in the test on SF-268; > 100 µM (inactive) in the test on SF-295; > 100 µM (inactive) in the test with SR; > 100 µM (inactive) with U-251; 81.7 µM (inactive) in the test with UACC-62; 40.7 µM (inactive) in the test with UO-31.

The values above are taken from ChEMBL document CHEMBL1201862, “PubChem BioAssay data set” (2004).
